Experimental data reported in patent publication US20170217931A1, “COMPOUNDS FOR USE IN ANTHELMINTHIC TREATMENT” (Bayer Animal Health GMBH, priority 2014, published 2017).
Like-named read-outs stand apart in the source and are kept apart here.

Assays:
Cooperia curticei = assay: microbe, parasite or virus in culture; format: cell-based; settings: 120 h, read-out: activity (larval mortality)
Method: (§1) To produce a suitable preparation of active compound, 10 mg of active compound are dissolved in 0.5 ml dimethyl sulfoxide, and the concentrate is diluted with “Ringer's solution” to the desired concentration.
Approximately 40 nematode larvae (Cooperia curticei) are transferred into a test tube containing the compound solution. After 5 days percentage of larval mortality is recorded. 100% efficacy means all larvae are killed; 0% efficacy means no larvae are killed.

[1] = Log P by HPLC on reversed phase columns, acidic range (EEC directive 79/831 Annex V.A8); format: physicochemical
Method: Measurement of Log P values was performed according to EEC directive 79/831 Annex V.A8 by HPLC (High Performance Liquid Chromatography) on reversed phase columns with the following methods: • [^a] Log P value is determined by measurement of LC-UV, in an acidic range, with 0.1% formic acid in water and acetonitrile as eluent (linear gradient from 10% acetonitrile to 95% acetonitrile). • [^b] Log P value is determined by measurement of LC-UV, in a neutral range, with 0.001 molar ammonium acetate solution in water and acetonitrile as eluent (linear gradient from 10% acetonitrile to 95% acetonitrile).
Calibration was done with straight-chain alkan-2-ones (with 3 to 16 carbon atoms) with known Log P values (measurement of Log P values using retention times with linear interpolation between successive alkanones). Lambda-max-values were determined using UV-spectra from 200 nm to 400 nm and the peak values of the chromatographic signals.

Haemonchus contortus = assay: microbe, parasite or virus in culture; format: cell-based; settings: 120 h, read-out: activity (larval mortality)
Method: as §1
Approximately 40 larvae of the red stomach worm (Haemonchus contortus) are transferred into a test tube containing compound solution. After 5 days percentage of larval mortality are recorded. 100% efficacy means all larvae are killed, 0% efficacy means no larvae are killed.

[2] = 4 ppm, after 5 days, Cooperia curticei larvae
[3] = 20 ppm, after 5 days, Cooperia curticei larvae
[4] = reversed phase HPLC columns; LC-UV, acidic range, 0.1% formic acid in water and acetonitrile; read-out: logP a) (HCOOH)
[5] = 20 ppm, after 5 days, Haemonchus contortus larvae

chromatographic logP [1, 4] | SMILES | mortality at 4 ppm (Cooperia curticei; Cooperia curticei) | mortality at 20 ppm (Cooperia curticei; Cooperia curticei) | chromatographic logP ([1]; LC-UV, acidic range, 0.1% formic acid in water and acetonitrile; read-out: logP a) (HCOOH)) | mortality at 4 ppm (Cooperia curticei; [2]) | mortality at 20 ppm (Cooperia curticei; [3]) | mortality at 20 ppm (Haemonchus contortus; [5]) | chromatographic logP [1] | mortality at 20 ppm (Haemonchus contortus; Haemonchus contortus)
 | O=C(NCC(F)(F)c1ncc(-c2ccoc2)cc1Cl)c1ccccc1C(F)(F)F [Example 1] | ≥ 90% | 100% | 3.21 |  |  |  |  | 
3.53 | Cc1occc1-c1cnc(C(F)(F)CNC(=O)c2ccccc2C(F)(F)F)c(Cl)c1 [Example 2] |  |  |  | ≥ 90% | 100% | 90% |  | 
 | O=C(NCC(F)(F)c1ncc(-n2cc(C(F)(F)F)cn2)cc1Cl)c1ccccc1C(F)(F)F [Example 3, N-[2-[3-chloro-5-[4-(trifluoromethyl)pyrazol-1-yl]-2-pyridyl]-2,2-difluoro-ethyl]-2-(trifluoromethyl)benzamide] | ≥ 90% | 100% |  |  |  |  | 3.62 | 100%
3.22 | Cn1ccc(-c2cnc(C(F)(F)CNC(=O)c3ccccc3C(F)(F)F)c(Cl)c2)c1 [Example 4] |  |  |  | ≥ 90% |  |  |  | 
3.12 | O=C(NCC(F)(F)c1ncc(-n2cc(F)cn2)cc1Cl)c1ccccc1C(F)(F)F [Example 5] |  |  |  | ≥ 90% | 100% | 90% |  | 
 | Cn1c(C(F)(F)F)nn(-c2cnc(C(F)(F)CNC(=O)c3ccccc3C(F)(F)F)c(Cl)c2)c1=O [Example 6] | ≥ 90% | 100% |  |  |  |  | 3.32 | 100%
2.88 | O=C(NCC(F)(F)c1ncc(-n2cc(F)cn2)cc1Cl)c1nccnc1C(F)(F)F [Example 7] |  |  |  |  |  |  |  | 
 | O=C(NCC(F)(F)c1ncc(-n2ccc(C(F)(F)F)n2)cc1Cl)c1nccnc1C(F)(F)F [Example 8] | ≥ 90% | 100% |  |  |  |  | 3.49 | 
2.7 | O=C(NCC(F)(F)c1ncc(-n2cc(F)cn2)cc1Cl)c1cccnc1C(F)(F)F [Example 9] |  |  |  | ≥ 90% | 100% |  |  | 
3.43 | O=C(NCC(F)(F)c1ncc(-n2cc(C(F)(F)F)cn2)cc1Cl)c1nccnc1C(F)(F)F [Example 10] |  |  |  | ≥ 90% | 100% | 100% |  | 
 | O=C(NCC(F)(F)c1ncc(-n2ccc(C(F)(F)F)n2)cc1Cl)c1ccccc1C(F)(F)F [Example 11] | ≥ 90% | 100% |  |  |  |  | 3.63 | 100%
 | O=C(NCC(F)(F)c1ncc(-n2cc(Cl)cn2)cc1Cl)c1ccccc1C(F)(F)F [Example 12] | ≥ 90% | 100% |  |  |  |  | 3.5 | 100%
3.27 | O=C(NCC(F)(F)c1ncc(-n2ccc(C(F)(F)F)n2)cc1Cl)c1cccnc1C(F)(F)F [Example 13] |  |  |  | ≥ 90% | 100% |  |  | 
3.24 | O=C(NCC(F)(F)c1ncc(-n2cc(C(F)(F)F)cn2)cc1Cl)c1cccnc1C(F)(F)F [Example 14] |  |  |  | ≥ 90% | 100% | 100% |  | 
3.1 | O=C(NCC(F)(F)c1ncc(-c2cnn(CC(F)(F)F)c2)cc1Cl)c1ccccc1C(F)(F)F [Example 15] |  |  |  | ≥ 90% | 100% |  |  | 
2.66 | O=C(NCC(F)(F)c1ncc(-c2cnn(CC(F)(F)F)c2)cc1Cl)c1cccnc1C(F)(F)F [Example 16] |  |  |  |  | 100% |  |  | 
2.85 | O=C(NCC(F)(F)c1ncc(-c2cnn(CC(F)(F)F)c2)cc1Cl)c1nccnc1C(F)(F)F [Example 17] |  |  |  |  | 100% |  |  | 
3.07 | O=C(NCC(F)(F)c1ncc(-n2cc(Cl)cn2)cc1Cl)c1cccnc1C(F)(F)F [Example 18] |  |  |  | ≥ 90% | 100% | 100% |  | 
